Reference: patent publication US10844077B2, “Thiazolyl-containing compounds for treating proliferative diseases” (Dana-Farber Cancer Institute, Inc., priority 2014, dated 2020)
pEC50, pIC50: −log10 of the molar value. “And” between values parts separate entries of the source, which are not always exact repeats. Identical values can stand only once.

Legend:
[1] = target: broad panel of kinases (Homo sapiens, UniProt P00519, M351T); type: binding; conditions: ABL1(M351T)-phosphorylated; 1 μM
[2] = target: broad panel of kinases (Homo sapiens, UniProt P07948); type: binding; conditions: LYN; 1 μM
Sequence of broad panel of kinases (Homo sapiens, UniProt P07948) (P07948 2-512 limits assumed): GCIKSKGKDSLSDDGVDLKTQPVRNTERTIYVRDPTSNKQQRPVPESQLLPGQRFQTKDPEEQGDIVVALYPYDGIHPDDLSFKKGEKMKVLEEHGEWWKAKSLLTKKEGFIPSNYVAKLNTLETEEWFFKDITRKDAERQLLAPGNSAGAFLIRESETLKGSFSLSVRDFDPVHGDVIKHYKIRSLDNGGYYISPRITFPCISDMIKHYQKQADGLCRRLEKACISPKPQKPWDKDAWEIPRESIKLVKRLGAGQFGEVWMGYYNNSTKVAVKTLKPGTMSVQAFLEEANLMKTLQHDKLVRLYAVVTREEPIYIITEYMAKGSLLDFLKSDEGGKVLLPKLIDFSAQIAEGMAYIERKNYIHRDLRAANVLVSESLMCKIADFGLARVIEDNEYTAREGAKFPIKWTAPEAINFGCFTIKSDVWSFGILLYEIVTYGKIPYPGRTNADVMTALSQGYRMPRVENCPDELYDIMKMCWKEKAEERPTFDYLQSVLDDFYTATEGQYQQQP

[3] = target: broad panel of kinases (Homo sapiens, UniProt Q9UBE8); type: binding; conditions: NLK; 1 μM
[4] = target: broad panel of kinases (Homo sapiens, UniProt O75385); type: binding; conditions: ULK1; 1 μM
[5] = target: broad panel of kinases (Homo sapiens, UniProt P19525); type: binding; conditions: PRKR; 1 μM
Sequence of broad panel of kinases (Homo sapiens, UniProt P19525) (P19525 2-551 limits assumed): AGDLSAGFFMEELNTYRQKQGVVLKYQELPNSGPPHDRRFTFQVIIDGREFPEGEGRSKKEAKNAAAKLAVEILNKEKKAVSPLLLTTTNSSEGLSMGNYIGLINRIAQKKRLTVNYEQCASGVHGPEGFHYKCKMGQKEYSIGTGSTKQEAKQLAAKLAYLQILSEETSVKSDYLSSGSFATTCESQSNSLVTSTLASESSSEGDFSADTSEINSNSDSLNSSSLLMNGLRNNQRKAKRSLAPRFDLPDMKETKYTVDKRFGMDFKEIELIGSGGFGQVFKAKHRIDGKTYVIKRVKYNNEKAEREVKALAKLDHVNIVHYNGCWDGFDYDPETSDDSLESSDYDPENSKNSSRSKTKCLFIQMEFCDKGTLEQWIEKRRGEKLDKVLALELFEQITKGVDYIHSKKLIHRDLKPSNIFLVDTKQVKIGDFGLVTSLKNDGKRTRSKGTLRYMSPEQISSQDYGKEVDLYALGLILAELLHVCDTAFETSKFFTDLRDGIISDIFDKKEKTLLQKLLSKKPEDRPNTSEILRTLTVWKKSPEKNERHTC

[6] = target: kinases in BCWM.1 cells (Homo sapiens, UniProt P46734); test: KINATIV assay of compounds I-3 and I-9, lysate directly labeled with ATP-biotin probe (no GF); type: cell-based; conditions: MAP2K3; Lys2; 1 μM; no GF
Method: (§1) The cells were harvested and lysed. […] Bound kinases were identified and quantitated by ACTIVX as described in Patricelli et al., Biochemistry, 2007, 46(2): 350-358. The compounds were tested in duplicates against duplicate or quadruplicate control samples.

[7] = target: kinases in BCWM.1 cells (Homo sapiens, UniProt Q9Y616); test: as above; type: cell-based; conditions: IRAK3; Lys1; 1 μM; no GF
Method: as §1

[8] = target: kinases in BCWM.1 cells (Homo sapiens, UniProt P06493); test: as above; type: cell-based; conditions: CDC2; Protein Kinase Domain; 1 μM; no GF
Method: as §1

[9] = target: kinases in BCWM.1 cells (Homo sapiens, UniProt O00418); test: as above; type: cell-based; conditions: eEF2K; ATP; 1 μM; no GF
Sequence of kinases in BCWM.1 cells (Homo sapiens, UniProt O00418) (O00418 2-725 limits assumed): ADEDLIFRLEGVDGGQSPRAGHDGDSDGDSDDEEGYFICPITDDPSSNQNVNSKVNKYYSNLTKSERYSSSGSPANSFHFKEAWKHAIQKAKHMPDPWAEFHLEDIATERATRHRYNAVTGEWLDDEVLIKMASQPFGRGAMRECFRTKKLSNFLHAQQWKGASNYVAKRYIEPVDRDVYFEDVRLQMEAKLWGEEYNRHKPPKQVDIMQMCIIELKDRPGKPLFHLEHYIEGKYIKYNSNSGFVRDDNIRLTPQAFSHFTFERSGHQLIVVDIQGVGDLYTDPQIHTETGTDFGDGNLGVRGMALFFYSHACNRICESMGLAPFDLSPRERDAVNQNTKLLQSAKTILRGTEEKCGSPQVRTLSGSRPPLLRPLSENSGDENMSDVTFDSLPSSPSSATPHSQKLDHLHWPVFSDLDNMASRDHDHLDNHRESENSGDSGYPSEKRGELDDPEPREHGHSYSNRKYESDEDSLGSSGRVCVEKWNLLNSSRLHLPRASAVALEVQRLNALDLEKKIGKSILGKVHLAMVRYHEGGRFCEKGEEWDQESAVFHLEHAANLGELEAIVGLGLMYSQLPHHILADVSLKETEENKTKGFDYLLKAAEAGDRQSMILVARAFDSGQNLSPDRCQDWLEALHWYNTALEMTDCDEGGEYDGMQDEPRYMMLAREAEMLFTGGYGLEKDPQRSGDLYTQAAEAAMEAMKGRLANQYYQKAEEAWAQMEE
Method: as §1

[10] = target: kinases in BCWM.1 cells (Homo sapiens, UniProt P06239); test: as above; type: cell-based; conditions: LCK; Activation Loop; 1 μM; no GF
Sequence of kinases in BCWM.1 cells (Homo sapiens, UniProt P06239) (P06239 2-509 limits assumed): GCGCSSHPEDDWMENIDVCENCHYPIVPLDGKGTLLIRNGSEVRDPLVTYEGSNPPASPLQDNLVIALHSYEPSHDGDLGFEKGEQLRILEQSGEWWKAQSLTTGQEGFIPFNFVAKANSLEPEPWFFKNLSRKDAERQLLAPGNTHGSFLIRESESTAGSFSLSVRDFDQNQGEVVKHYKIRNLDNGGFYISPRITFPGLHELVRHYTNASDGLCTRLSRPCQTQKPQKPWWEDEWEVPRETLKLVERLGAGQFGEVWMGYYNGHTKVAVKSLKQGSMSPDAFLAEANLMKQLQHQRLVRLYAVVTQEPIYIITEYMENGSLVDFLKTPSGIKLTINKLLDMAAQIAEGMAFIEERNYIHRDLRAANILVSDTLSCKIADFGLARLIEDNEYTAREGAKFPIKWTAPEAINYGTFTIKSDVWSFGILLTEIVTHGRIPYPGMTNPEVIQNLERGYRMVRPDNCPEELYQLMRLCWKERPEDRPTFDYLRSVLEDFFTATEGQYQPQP
Method: as §1

[11] = target: kinases in BCWM.1 cells (Homo sapiens, UniProt Q14680); test: as above; type: cell-based; conditions: MELK; Lys2; 1 μM; no GF
Method: as §1

[12] = target: kinases in BCWM.1 cells (Homo sapiens, UniProt P45985); test: as above; type: cell-based; conditions: MAP2K4; Lys2; 1 μM; no GF
Sequence of kinases in BCWM.1 cells (Homo sapiens, UniProt P45985) (P45985 2-399 limits assumed): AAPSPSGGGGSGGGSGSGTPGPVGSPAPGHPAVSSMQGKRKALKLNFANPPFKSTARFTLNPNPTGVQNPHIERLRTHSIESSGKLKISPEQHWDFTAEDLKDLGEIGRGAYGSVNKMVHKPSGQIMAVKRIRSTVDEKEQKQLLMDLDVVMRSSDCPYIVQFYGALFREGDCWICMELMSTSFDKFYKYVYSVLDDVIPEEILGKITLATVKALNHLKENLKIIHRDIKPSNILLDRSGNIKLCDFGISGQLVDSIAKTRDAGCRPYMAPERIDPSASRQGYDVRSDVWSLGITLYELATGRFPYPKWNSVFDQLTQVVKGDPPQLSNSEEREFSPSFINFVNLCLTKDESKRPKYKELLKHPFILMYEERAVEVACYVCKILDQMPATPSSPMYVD
Method: as §1

[13] = target: kinases in BCWM.1 cells (Homo sapiens, UniProt P29323); test: as above; type: cell-based; conditions: EphB2; Activation Loop; 1 μM; no GF
Sequence of kinases in BCWM.1 cells (Homo sapiens, UniProt P29323) (P29323 19-1055 limits assumed): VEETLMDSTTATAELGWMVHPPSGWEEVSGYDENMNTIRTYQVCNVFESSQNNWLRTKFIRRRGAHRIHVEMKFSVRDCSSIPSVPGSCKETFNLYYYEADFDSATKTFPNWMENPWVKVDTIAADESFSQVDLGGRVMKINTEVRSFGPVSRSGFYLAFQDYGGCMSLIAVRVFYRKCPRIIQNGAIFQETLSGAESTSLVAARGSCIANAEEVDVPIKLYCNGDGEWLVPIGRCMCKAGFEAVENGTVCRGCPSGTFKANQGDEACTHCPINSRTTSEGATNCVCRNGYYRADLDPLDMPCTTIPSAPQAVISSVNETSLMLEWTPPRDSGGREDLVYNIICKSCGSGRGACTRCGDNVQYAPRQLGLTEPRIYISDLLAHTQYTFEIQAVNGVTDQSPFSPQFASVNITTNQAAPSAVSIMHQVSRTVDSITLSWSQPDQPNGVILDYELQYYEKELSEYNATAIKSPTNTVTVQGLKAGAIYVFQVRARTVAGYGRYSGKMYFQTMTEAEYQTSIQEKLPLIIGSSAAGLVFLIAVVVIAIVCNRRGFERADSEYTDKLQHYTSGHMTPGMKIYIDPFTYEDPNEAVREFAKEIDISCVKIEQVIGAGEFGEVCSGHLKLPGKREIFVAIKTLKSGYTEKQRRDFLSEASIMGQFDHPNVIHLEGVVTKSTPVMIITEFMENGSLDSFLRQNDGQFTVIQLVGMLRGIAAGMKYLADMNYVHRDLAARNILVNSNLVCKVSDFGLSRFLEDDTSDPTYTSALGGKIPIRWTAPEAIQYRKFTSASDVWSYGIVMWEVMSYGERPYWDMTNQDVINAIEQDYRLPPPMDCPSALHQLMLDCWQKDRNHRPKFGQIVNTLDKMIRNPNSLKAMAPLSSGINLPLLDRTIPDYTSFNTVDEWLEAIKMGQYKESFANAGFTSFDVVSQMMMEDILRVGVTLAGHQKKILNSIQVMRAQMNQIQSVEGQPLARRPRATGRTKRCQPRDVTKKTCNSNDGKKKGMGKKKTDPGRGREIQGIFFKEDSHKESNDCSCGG
Method: as §1

[14] = target: kinases in BCWM.1 cells (Homo sapiens, UniProt Q00534); test: as above; type: cell-based; conditions: CDK6; Lys2; 1 μM; no GF
Method: as §1

[15] = target: kinases in BCWM.1 cells (Homo sapiens, UniProt P78368); test: as above; type: cell-based; conditions: CK1g2; Lys2; 1 μM; no GF
Method: as §1

[16] = target: kinases in BCWM.1 cells (Homo sapiens, UniProt P52333); test: as above; type: cell-based; conditions: JAK3 domain2; Activation Loop; 1 μM; no GF
Method: as §1

[17] = target: kinases in BCWM.1 cells (Homo sapiens, UniProt P41240); test: as above; type: cell-based; conditions: CSK; Activation Loop; 1 μM; no GF
Sequence of kinases in BCWM.1 cells (Homo sapiens, UniProt P41240) (P41240 2-450 limits assumed): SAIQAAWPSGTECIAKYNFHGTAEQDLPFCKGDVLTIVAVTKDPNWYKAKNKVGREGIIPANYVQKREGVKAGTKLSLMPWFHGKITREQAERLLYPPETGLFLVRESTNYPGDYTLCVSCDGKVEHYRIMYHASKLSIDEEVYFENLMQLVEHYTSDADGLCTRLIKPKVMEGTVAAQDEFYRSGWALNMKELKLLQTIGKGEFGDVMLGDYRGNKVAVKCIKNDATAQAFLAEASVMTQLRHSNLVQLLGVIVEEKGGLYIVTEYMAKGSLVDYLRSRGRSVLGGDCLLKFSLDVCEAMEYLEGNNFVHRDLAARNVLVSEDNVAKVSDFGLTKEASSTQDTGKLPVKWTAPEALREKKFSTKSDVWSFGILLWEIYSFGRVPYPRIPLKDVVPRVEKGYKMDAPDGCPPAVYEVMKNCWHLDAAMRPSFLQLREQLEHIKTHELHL
Method: as §1

[18] = target: kinases in BCWM.1 cells (Homo sapiens, UniProt P28482); test: as above; type: cell-based; conditions: Erk2; Lys2; 1 μM; no GF
Sequence of kinases in BCWM.1 cells (Homo sapiens, UniProt P28482) (P28482 2-360 limits assumed): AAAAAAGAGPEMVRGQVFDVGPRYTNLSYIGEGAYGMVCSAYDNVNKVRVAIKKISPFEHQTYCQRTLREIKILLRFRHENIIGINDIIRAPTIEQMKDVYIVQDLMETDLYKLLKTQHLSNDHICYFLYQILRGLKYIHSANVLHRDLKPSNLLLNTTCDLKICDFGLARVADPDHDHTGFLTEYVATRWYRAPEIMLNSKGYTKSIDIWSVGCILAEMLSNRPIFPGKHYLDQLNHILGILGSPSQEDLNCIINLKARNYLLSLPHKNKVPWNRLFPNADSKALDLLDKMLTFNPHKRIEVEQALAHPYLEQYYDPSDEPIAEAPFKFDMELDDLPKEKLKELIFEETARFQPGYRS
Method: as §1

[19] = target: kinases in BCWM.1 cells (Homo sapiens, UniProt Q12851); test: as above; type: cell-based; conditions: GCK; Lys2; 1 μM; no GF
Method: as §1

[20] = target: kinases in BCWM.1 cells (Homo sapiens, UniProt Q8IU85); test: as above; type: cell-based; conditions: CaMKld; Lys1; 1 μM; no GF
Method: as §1

[21] = target: kinases in BCWM.1 cells (Homo sapiens, UniProt Q13315); test: as above; type: cell-based; conditions: ATM; ATP; 1 μM; no GF
Method: as §1

[22] = target: kinases in BCWM.1 cells (Homo sapiens, UniProt P41743); test: as above; type: cell-based; conditions: PKCi; Lys1; 1 μM, 90 min; no GF
Method: as §1

[23] = target: kinases in BCWM.1 cells (Homo sapiens, UniProt Q86UX6); test: as above; type: cell-based; conditions: YANK3; Lys2; 1 μM, 90 min; no GF
Method: as §1

[24] = target: kinases in BCWM.1 cells (Homo sapiens, UniProt P78356); test: as above; type: cell-based; conditions: PIP4K2B; ATP; 1 μM, 90 min; no GF
Sequence of kinases in BCWM.1 cells (Homo sapiens, UniProt P78356) (P78356 2-416 limits assumed): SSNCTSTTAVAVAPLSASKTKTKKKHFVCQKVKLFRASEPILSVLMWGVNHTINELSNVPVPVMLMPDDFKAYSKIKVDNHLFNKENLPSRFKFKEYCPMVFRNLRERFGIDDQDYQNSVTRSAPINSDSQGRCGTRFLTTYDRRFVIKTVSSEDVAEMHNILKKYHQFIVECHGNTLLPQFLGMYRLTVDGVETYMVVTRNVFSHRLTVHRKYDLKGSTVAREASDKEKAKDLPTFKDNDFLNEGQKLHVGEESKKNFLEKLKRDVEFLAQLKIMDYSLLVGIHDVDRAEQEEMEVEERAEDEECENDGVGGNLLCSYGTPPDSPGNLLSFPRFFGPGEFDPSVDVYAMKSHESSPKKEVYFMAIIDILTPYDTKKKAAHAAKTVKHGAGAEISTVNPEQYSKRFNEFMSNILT
Method: as §1

[25] = tested on: TMD-8; test: CellTiter-Glo Luminescent cell viability assay; type: cell-based; conditions: cell survival, 72 hours
Method: (§2) The inhibitory activities of exemplary compounds described herein against select protein kinases and cells were determined. Cell survival following treatment of exemplary compounds described herein was assessed by CellTiter-Glo® Luminescent cell viability assay (Promega). The cells were seeded into 384 well plates with the EL406 Combination Washer Dispenser (BioTek Instruments, Inc.), and a series diluted exemplary compounds (20˜0.0006 μM) were injected into the culture media with the JANUS Automated Workstation (PerkinElmer Inc.). The cells were treated for 72 hours at 37° C. with 5% CO2. Luminescent measurement is performed using the 2104 Envision® Multilabel Reader (PerkinElmer Inc.). EC50 values were calculated with […] PRISM software.

[26] = tested on: OCI-Ly19; test: CellTiter-Glo Luminescent cell viability assay; type: cell-based; conditions: cell survival, 72 hours
Method: as §2

[27] = tested on: MWCL-1; test: CellTiter-Glo Luminescent cell viability assay; type: cell-based; conditions: cell survival, 72 hours
Method: as §2

[28] = tested on: HBL-1; test: CellTiter-Glo Luminescent cell viability assay; type: cell-based; conditions: cell survival, 72 hours
Method: as §2

[29] = tested on: Ramos; test: CellTiter-Glo Luminescent cell viability assay; type: cell-based; conditions: cell survival, 72 hours
Method: as §2

[30] = tested on: BCWM.1; test: CellTiter-Glo Luminescent cell viability assay; type: cell-based; conditions: cell survival, 72 hours
Method: as §2

[31] = target: BTK (Homo sapiens (Human), UniProt Q06187); test: BTK inhibitory activity; type: biochemical

C=CC(=O)N1CC[C@H](Nc2nc(CN3CCOCC3)cc(Nc3ncc(C(=O)Nc4c(C)cccc4C)s3)n2)C1 [Example I-2]
percent of control binding remaining (lower = stronger binding) [1]: 0.6%
percent of control binding remaining (lower = stronger binding) [2]: 0%
percent of control binding remaining (lower = stronger binding) [3]: 11%
percent of control binding remaining (lower = stronger binding) [4]: 79%
percent of control binding remaining (lower = stronger binding) [5]: 89%

C=CC(=O)N1CC[C@H](Nc2nccc(Nc3ncc(C(=O)Nc4c(C)cccc4C)s3)n2)C1 [Example I-3]
% change compared to control [1]: 0.7%
percent of control binding remaining (lower = stronger binding) [2]: 0.1%
percent of control binding remaining (lower = stronger binding) [3]: 9.4%
percent of control binding remaining (lower = stronger binding) [4]: 86%
percent of control binding remaining (lower = stronger binding) [5]: 69%
% change of MS signal compared to control sample [6]: 15.6% and 5.8%
% change of MS signal compared to control sample [7]: −11.3% and −5.5%
% change of MS signal compared to control sample [8]: −0.7% and −4.3%
% change of MS signal compared to control sample [9]: −18.9% and −27.8%
% change of MS signal compared to control sample [10]: 92.6% and 92.7%
% change of MS signal compared to control sample [11]: −12.1% and −10.6%
% change of MS signal compared to control sample [12]: −3.9% and 1.1%
% change of MS signal compared to control sample [13]: 91% and 91.6%
% change of MS signal compared to control sample [14]: 12.4% and 3.6%
% change of MS signal compared to control sample [15]: −3.7% and −4.5%
% change of MS signal compared to control sample [16]: −1.5% and −0.6%
% change of MS signal compared to control sample [17]: 36% and 60.3%
% change of MS signal compared to control sample [18]: −1.8% and 1.1%
% change of MS signal compared to control sample [19]: 18.1% and 17.8%
% change of MS signal compared to control sample [20]: −0.4% and −5%
% change of MS signal compared to control sample [21]: 20.7% and 19.5%

CCC(=O)N1CC[C@H](Nc2nccc(Nc3ncc(C(=O)Nc4c(C)cccc4C)s3)n2)C1 [Example I-9]
% change of MS signal compared to control sample [22]: 16.5%
% change of MS signal compared to control sample [23]: −8.6%
% change of MS signal compared to control sample [24]: 17.6%

C=CC(=O)N1CCC(Cn2ccc(Nc3ncc(C(=O)Nc4c(C)cccc4Cl)s3)n2)C1 (stereo not drawn) [II-1]
pEC50 [25]: 6.24
pEC50 [26]: 5.10
pEC50 [27]: 6.92
pEC50 [28]: 6.13
pEC50 [29]: < 4.70
pEC50 [30]: 7.08
pIC50 [31]: 8.96
